Results taken from the NIST ThermoML archive (doi:10.1016/j.jct.2015.09.029).
Numbers after ± are expanded uncertainties.

Key:
[1] = mn = molality of the nth substance listed, in mol/kg; details: 100 kPa, Liquid; for viscosity: Capillary tube (Ostwald / Ubbelohde) method; for speed of sound: Frequency=2 MHz, Linear variable-path acoustic interferometer
[2] = 100 kPa, Liquid, Capillary tube (Ostwald / Ubbelohde) method

viscosity ([1]; 298.15 K, m2 = 0) [mPa·s]	speed of sound ([1]; 298.15 K, m2 = 0) [m/s]	viscosity ([1]; 303.15 K, m2 = 0) [mPa·s]	viscosity ([1]; 308.15 K, m2 = 0) [mPa·s]	viscosity ([1]; 313.15 K, m2 = 0) [mPa·s]	speed of sound ([1]; 313.15 K, m2 = 0) [m/s]	Compound	also measured
–	–	–	–	–	–	CCCCn1cc[n+](C)c1.[Cl-] [1-butyl-3-methylimidazolium chloride] + O	viscosity ([1]; 298.15 K, m1 = 0.0155): 0.8976 ± 0.019 mPa·s; viscosity ([1]; 298.15 K, m1 = 0.0257): 0.9023 ± 0.019 mPa·s; viscosity ([1]; 298.15 K, m1 = 0.0567): 0.9166 ± 0.019 mPa·s; viscosity ([1]; 298.15 K, m1 = 0.0653): 0.9205 ± 0.019 mPa·s; viscosity ([1]; 298.15 K, m1 = 0.0782): 0.9265 ± 0.019 mPa·s; viscosity ([1]; 298.15 K, m1 = 0.0895): 0.9317 ± 0.019 mPa·s; viscosity ([1]; 298.15 K, m1 = 0.0923): 0.933 ± 0.019 mPa·s; viscosity ([1]; 298.15 K, m1 = 0.1052): 0.9389 ± 0.02 mPa·s; viscosity ([1]; 298.15 K, m1 = 0.1123): 0.9422 ± 0.02 mPa·s
–	–	–	–	–	–	O [water]	viscosity ([2]; 298.15 K): 0.8905 ± 0.019 mPa·s; viscosity ([2]; 303.15 K): 0.7977 ± 0.017 mPa·s; viscosity ([2]; 308.15 K): 0.7195 ± 0.015 mPa·s; viscosity ([2]; 313.15 K): 0.6532 ± 0.014 mPa·s
0.8905 ± 0.019	1497.6 ± 4.3	0.7977 ± 0.017	0.7195 ± 0.015	0.6532 ± 0.014	1528.5 ± 4.3	O [water] + CCCC[P+](C)(CCCC)CCCC.COS(=O)(=O)[O-]	–
0.8905 ± 0.019	1497.6 ± 4.3	0.7977 ± 0.017	0.7195 ± 0.015	0.6532 ± 0.014	1528.5 ± 4.3	O [water] + CCCC[P+](CCCC)(CCCC)CCCC.[Cl-]	–
0.8905 ± 0.019	–	–	–	–	–	O [water] + CCCCn1cc[n+](C)c1.[Cl-]	–

Compound	viscosity ([1]; 298.15 K, m2 = 0) [mPa·s]	speed of sound ([1]; 298.15 K, m2 = 0) [m/s]	viscosity ([1]; 303.15 K, m2 = 0) [mPa·s]	viscosity ([1]; 308.15 K, m2 = 0) [mPa·s]	viscosity ([1]; 313.15 K, m2 = 0) [mPa·s]	speed of sound ([1]; 313.15 K, m2 = 0) [m/s]	also measured
O [water] + CC(C)C[P+](C)(CC(C)C)CC(C)C.Cc1ccc(S(=O)(=O)[O-])cc1	0.8905 ± 0.019	1497.6 ± 4.3	0.7977 ± 0.017	0.7195 ± 0.015	0.6532 ± 0.014	1528.5 ± 4.3	–
